{"source": "ChEMBL document CHEMBL1125127", "about": "(J Med Chem, 1990)", "key": {"Canis familiaris [1]": {"test_system": "Canis familiaris", "assay": "Concentration that causes a 20% increase in APD95 (action potential duration at 95% repolarization) from control value in anesthetized dogs", "format": "functional, Canis lupus familiaris"}, "Canis familiaris [2]": {"test_system": "Canis familiaris", "assay": "Concentration at which maximum change in […] was observed from control value in anesthetized dogs; The maximum observed change APD95 from control value and concentration at 30 uM when this occurred", "format": "functional, Canis lupus familiaris"}, "Canis familiaris [3]": {"test_system": "Canis familiaris", "assay": "Percent change in blood pressure (BP) from control at active dose 22-30 mg/kg administered intraperitoneally in anesthetized dogs", "format": "functional, Canis lupus familiaris"}, "[4]": {"assay": "Ratio of number of active animals to number of treated at dose 22-30 mg/kg administered intraperitoneally in anesthetized dogs; No of animals tested=2", "format": "functional"}, "[5]": {"molecular_target": "Beta adrenergic receptor (Canis familiaris)"}, "Canis familiaris [6]": {"test_system": "Canis familiaris", "assay": "Percent change in heart rate (HR) from control at active dose 22-30 mg/kg administered intraduodenally"}, "Canis familiaris [7]": {"test_system": "Canis familiaris", "assay": "Percent change in FRP from control at active dose 22-30 mg/kg administered intraduodenally in anesthetized dogs"}, "[8]": {"molecular_target": "Beta-2 adrenergic receptor (Canis lupus familiaris, UniProt P54833)", "sequence (P54833 whole entry)": "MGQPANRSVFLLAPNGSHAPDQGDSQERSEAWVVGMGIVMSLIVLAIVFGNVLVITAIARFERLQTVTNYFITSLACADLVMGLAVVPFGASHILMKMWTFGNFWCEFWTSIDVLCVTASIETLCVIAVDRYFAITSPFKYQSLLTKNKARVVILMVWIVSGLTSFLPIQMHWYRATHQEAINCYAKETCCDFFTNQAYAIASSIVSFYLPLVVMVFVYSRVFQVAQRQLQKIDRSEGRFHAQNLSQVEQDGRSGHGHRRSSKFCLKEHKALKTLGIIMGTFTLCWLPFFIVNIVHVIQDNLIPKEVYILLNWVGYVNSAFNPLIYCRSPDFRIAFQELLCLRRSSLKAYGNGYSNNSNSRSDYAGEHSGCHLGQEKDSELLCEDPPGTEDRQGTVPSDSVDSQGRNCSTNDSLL", "assay": "Beta2-receptor selectivity in canine lung tissue in anesthetized dogs", "format": "functional"}, "Canis familiaris [9]": {"test_system": "Canis familiaris", "assay": "Percent change in blood pressure (BP) from control at active dose 0.1-3.0 mg/kg administered intraperitoneally in anesthetized dogs", "format": "functional, Canis lupus familiaris"}, "Canis familiaris [10]": {"test_system": "Canis familiaris", "assay": "Percent change in FRP from control at active dose 0.1-3.0 mg/kg administered intravenously"}, "Canis familiaris [11]": {"test_system": "Canis familiaris", "assay": "Percent change in heart rate (HR) from control at active dose 0.1-3.0 mg/kg administered intravenously in conscious dogs"}, "Canis familiaris [12]": {"test_system": "Canis familiaris", "assay": "Concentration at which maximum change in […] was observed from control value in anesthetized dogs; The maximum observed change APD95 from control value and concentration at 100 uM when this occurred", "format": "functional, Canis lupus familiaris"}, "Canis familiaris [13]": {"test_system": "Canis familiaris", "assay": "Percent change in blood pressure (BP) from control at active dose 1.0-10 mg/kg administered intraperitoneally in anesthetized dogs", "format": "functional, Canis lupus familiaris"}, "Canis familiaris [14]": {"test_system": "Canis familiaris", "assay": "Percent change in blood pressure (BP) from control at active dose 30 mg/kg administered intraperitoneally in anesthetized dogs", "format": "functional, Canis lupus familiaris", "settings": "route intraperitoneal"}, "Canis familiaris [15]": {"test_system": "Canis familiaris", "assay": "Percent change in heart rate (HR) from control at active dose 1.0-10 mg/kg administered intraperitoneally in anesthetized dogs", "format": "functional, Canis lupus familiaris"}, "Canis familiaris [16]": {"test_system": "Canis familiaris", "assay": "Percent change in FRP from control at active dose 1.0-10 mg/kg administered intraperitoneally", "format": "functional, Canis lupus familiaris"}, "[17]": {"assay": "Ratio of number of active animals to number of treated at dose 30 mg/kg administered intraperitoneally in anesthetized dogs; No of animals tested=2", "format": "functional", "settings": "route intraperitoneal"}, "[18]": {"assay": "(§1) Percent change in FRP from control at active dose 30 mg/kg administered intraperitoneally in anesthetized dogs", "format": "functional", "settings": "route intraperitoneal"}, "Canis familiaris [19]": {"test_system": "Canis familiaris", "assay": "Percent change in heart rate (HR) from control at active dose 30 mg/kg administered intraduodenally", "settings": "route intraduodenal"}, "Canis familiaris [20]": {"test_system": "Canis familiaris", "assay": "Maximum change in […] from control value in anesthetized dogs; 10 uM.", "format": "functional, Canis lupus familiaris"}, "Canis familiaris [21]": {"test_system": "Canis familiaris", "assay": "Percent change in FRP from control at active dose 1.0-10 mg/kg administered intravenously"}, "Canis familiaris [22]": {"test_system": "Canis familiaris", "assay": "Percent change in heart rate (HR) from control at active dose 1.0-10 mg/kg administered intravenously in conscious dogs"}, "Canis familiaris [23]": {"test_system": "Canis familiaris", "assay": "Percent change in blood pressure (BP) from control at active dose 1.0-10 mg/kg administered intravenously in anesthetized dogs"}, "Canis familiaris [24]": {"test_system": "Canis familiaris", "assay": "Percent change in blood pressure (BP) from control at active dose 0.3-3 mg/kg administered intraperitoneally in anesthetized dogs", "format": "functional, Canis lupus familiaris"}, "Canis familiaris [25]": {"test_system": "Canis familiaris", "assay": "Percent change in FRP from control at active dose 0.3-3 mg/kg administered intravenously"}, "Canis familiaris [26]": {"test_system": "Canis familiaris", "assay": "Percent change in heart rate (HR) from control at active dose 1.0-10 mg/kg administered intraduodenally"}, "Canis familiaris [27]": {"test_system": "Canis familiaris", "assay": "Percent change in FRP from control at active dose 1.0-10 mg/kg administered intraduodenally in anesthetized dogs"}, "Canis familiaris [28]": {"test_system": "Canis familiaris", "assay": "Percent change in heart rate (HR) from control at active dose 0.3-3 mg/kg administered intravenously in conscious dogs"}, "Canis familiaris [29]": {"test_system": "Canis familiaris", "assay": "Percent change in FRP from control at active dose 10 mg/kg administered intraperitoneally in anesthetized dogs", "format": "functional, Canis lupus familiaris", "settings": "route intraperitoneal"}, "Canis familiaris [30]": {"test_system": "Canis familiaris", "assay": "Percent change in blood pressure (BP) from control at active dose 0.1-10 mg/kg administered intraperitoneally in anesthetized dogs", "format": "functional, Canis lupus familiaris"}, "Canis familiaris [31]": {"test_system": "Canis familiaris", "assay": "Percent change in blood pressure (BP) from control at active dose 10 mg/kg administered intraperitoneally in anesthetized dogs", "format": "functional, Canis lupus familiaris", "settings": "route intraperitoneal"}, "Canis familiaris [32]": {"test_system": "Canis familiaris", "assay": "Percent change in heart rate (HR) from control at active dose 0.1-10 mg/kg administered intraperitoneally in anesthetized dogs", "format": "functional, Canis lupus familiaris"}, "Canis familiaris [33]": {"test_system": "Canis familiaris", "assay": "Percent change in FRP from control at active dose 0.1-10 mg/kg administered intravenously"}, "Canis familiaris [34]": {"test_system": "Canis familiaris", "assay": "Percent change in heart rate (HR) from control at active dose 10 mg/kg administered intraduodenally", "settings": "route intraduodenal"}, "Canis familiaris [35]": {"test_system": "Canis familiaris", "assay": "Percent change in heart rate (HR) from control at active dose 30 mg/kg administered intraperitoneally", "format": "functional, Canis lupus familiaris", "settings": "route intraperitoneal"}, "Canis familiaris [36]": {"test_system": "Canis familiaris", "assay": "as §1", "format": "functional, Canis lupus familiaris", "settings": "route intraperitoneal"}}, "data": [{"compound": "COc1ccc(OCC(O)CNCCNC(=O)c2ccc(-n3ccnc3)cc2)cc1", "note": "(stereo unspecified)", "values": [{"measurement": "C20", "setting": "Canis familiaris [1]", "result": 6.6, "unit": "µM"}, {"measurement": "Max delta", "setting": "Canis familiaris [2]", "result": 47, "unit": "%"}, {"measurement": "Change", "setting": "Canis familiaris [3]", "result": -1, "unit": "%"}, {"measurement": "No. effective", "setting": "[4]", "result": 2}, {"measurement": "IC50", "setting": "[5]", "result": 61.4, "unit": "µM"}, {"measurement": "Change", "setting": "Canis familiaris [6]", "result": -35, "unit": "%"}, {"measurement": "Change", "setting": "Canis familiaris [7]", "result": 24, "unit": "%"}]}, {"compound": "CS(=O)(=O)Nc1ccc(OC[C@@H](O)CNCCOc2ccc(-n3ccnc3)cc2)cc1", "note": "(stereo in doubt; (S)-1) [ERSENTILIDE]", "values": [{"measurement": "IC50", "setting": "[8]", "result": 50, "unit": "µM"}, {"measurement": "C20 APD95", "setting": "Canis familiaris [1]", "result": 1.8, "unit": "µM"}, {"measurement": "Max delta", "setting": "Canis familiaris [2]", "result": 73, "unit": "%"}, {"measurement": "Change", "setting": "Canis familiaris [9]", "result": 4, "unit": "%"}, {"measurement": "Change", "setting": "Canis familiaris [10]", "result": 5, "unit": "%"}, {"measurement": "Change", "setting": "Canis familiaris [11]", "result": -2, "unit": "%"}]}, {"compound": "O=C(NCCNCC(O)COc1cccc2ccccc12)c1ccc(-n2ccnc2)cc1", "note": "(stereo unspecified)", "values": [{"measurement": "C20", "setting": "Canis familiaris [1]", "result": 1.8, "unit": "µM"}, {"measurement": "Max delta", "setting": "Canis familiaris [12]", "result": 57, "unit": "%"}, {"measurement": "Change", "setting": "Canis familiaris [13]", "result": -5, "unit": "%"}, {"measurement": "Change", "setting": "Canis familiaris [14]", "result": 16, "unit": "%"}, {"measurement": "Change", "setting": "Canis familiaris [15]", "result": 24, "unit": "%"}, {"measurement": "Change", "setting": "Canis familiaris [16]", "result": 6, "unit": "%"}, {"measurement": "Ratio", "setting": "[17]", "result": 2}, {"measurement": "Change", "setting": "[18]", "result": 13, "unit": "%"}, {"measurement": "IC50", "setting": "[5]", "result": 0.42, "unit": "µM"}, {"measurement": "Change", "setting": "Canis familiaris [19]", "result": -15, "unit": "%"}]}, {"compound": "Cc1cccc(OCC(O)CNCCOc2ccc(-n3ccnc3)cc2)c1", "note": "(stereo unspecified)", "values": [{"measurement": "IC50", "setting": "[8]", "result": 0.51, "unit": "µM"}, {"measurement": "C20 APD95", "setting": "Canis familiaris [1]", "result": 10, "unit": "µM"}, {"measurement": "Max delta", "setting": "Canis familiaris [20]", "result": 35, "unit": "%"}, {"measurement": "Change", "setting": "Canis familiaris [21]", "result": 9, "unit": "%"}, {"measurement": "Change", "setting": "Canis familiaris [22]", "result": -12, "unit": "%"}, {"measurement": "Change", "setting": "Canis familiaris [23]", "result": -4, "unit": "%"}]}, {"compound": "CS(=O)(=O)Nc1ccc(OC[C@@H](O)CNCCOc2ccc(-n3ccnc3)cc2)cc1", "note": "(stereo in doubt; 1) [ERSENTILIDE]", "values": [{"measurement": "IC50", "setting": "[8]", "result": 46.5, "unit": "µM"}, {"measurement": "C20 APD95", "setting": "Canis familiaris [1]", "result": 0.4, "unit": "µM"}, {"measurement": "Max delta", "setting": "Canis familiaris [2]", "result": 92, "unit": "%"}, {"measurement": "Change", "setting": "Canis familiaris [24]", "result": 3, "unit": "%"}, {"measurement": "Change", "setting": "Canis familiaris [13]", "result": 3, "unit": "%"}, {"measurement": "Change", "setting": "Canis familiaris [25]", "result": 13, "unit": "%"}, {"measurement": "Change", "setting": "Canis familiaris [26]", "result": -16, "unit": "%"}, {"measurement": "Change", "setting": "Canis familiaris [27]", "result": 27, "unit": "%"}, {"measurement": "Change", "setting": "Canis familiaris [28]", "result": 9, "unit": "%"}]}, {"compound": "CS(=O)(=O)Nc1ccc(C(O)CNCCOc2ccc(-n3ccnc3)cc2)cc1", "note": "(stereo unspecified)", "values": [{"measurement": "IC50", "setting": "[8]", "result": 5.7, "unit": "µM"}, {"measurement": "Change", "setting": "Canis familiaris [29]", "result": 24, "unit": "%"}, {"measurement": "C20 APD95", "setting": "Canis familiaris [1]", "result": "<1", "unit": "µM"}, {"measurement": "Max delta", "setting": "Canis familiaris [12]", "result": 155, "unit": "%"}, {"measurement": "Change", "setting": "Canis familiaris [30]", "result": -4, "unit": "%"}, {"measurement": "Change", "setting": "Canis familiaris [31]", "result": 17, "unit": "%"}, {"measurement": "Change", "setting": "Canis familiaris [32]", "result": 1, "unit": "%"}, {"measurement": "Change", "setting": "Canis familiaris [33]", "result": 15, "unit": "%"}, {"measurement": "Change", "setting": "Canis familiaris [34]", "result": -18, "unit": "%"}]}, {"compound": "CS(=O)(=O)Nc1ccc(N2CCN(CC(O)CON=C(C3CC3)C3CC3)CC2)cc1", "note": "(stereo unspecified)", "values": [{"measurement": "Change", "setting": "Canis familiaris [35]", "result": -17, "unit": "%"}, {"measurement": "C20", "setting": "Canis familiaris [1]", "result": 8, "unit": "µM"}, {"measurement": "Max delta", "setting": "Canis familiaris [2]", "result": 45, "unit": "%"}, {"measurement": "Change", "setting": "Canis familiaris [36]", "result": 15, "unit": "%"}, {"measurement": "Change", "setting": "Canis familiaris [13]", "result": 8, "unit": "%"}, {"measurement": "Change", "setting": "Canis familiaris [14]", "result": 17, "unit": "%"}, {"measurement": "Change", "setting": "Canis familiaris [15]", "result": 9, "unit": "%"}, {"measurement": "Change", "setting": "Canis familiaris [16]", "result": 6, "unit": "%"}, {"measurement": "Ratio", "setting": "[17]", "result": 1}]}]}
